Experimental data from ChEMBL document CHEMBL5252582, “Glyclauxins A-E: Dimeric Oxaphenalenone Aminoglycosides from an Australian Wasp Nest-Derived Fungus Talaromyces sp. CMB-MW102” (J Nat Prod, 2023).

Experiments:
[1] = system: NCI-H460; experiment: Cytotoxicity against human NCI-H460 cells assessed as cell growth inhibition incubated for 48 hrs by MTT assay; type: functional, cell-based; settings: NCI-H460, 48 h
[2] = system: SW-620; experiment: Cytotoxicity against human SW620 cells assessed as cell growth inhibition incubated for 48 hrs by MTT assay; type: functional, cell-based; settings: SW-620, 48 h
[3] = system: Escherichia coli; experiment: Antibacterial activity against gram negative Escherichia coli ATCC11775 assessed as bacterial growth inhibition incubated for 24 hrs by spectrophotometric analysis; type: functional, organism-based; settings: ATCC11775, 24 h
[4] = system: Candida albicans; experiment: Antifungal activity against Candida albicans ATCC10231 assessed as fungal growth inhibition incubated for 24 hrs by spectrophotometric analysis; type: functional, organism-based; settings: ATCC10231, 24 h
[5] = system: Staphylococcus aureus; experiment: Antibacterial activity against gram positive Staphylococcus aureus ATCC25923 assessed as bacterial growth inhibition incubated for 24 hrs by spectrophotometric analysis; type: functional, organism-based; settings: ATCC25923, 24 h

Measured: IC50

CO[C@@]12c3c(C)cc(O)c4c(=O)occ(c34)C(=O)[C@@H]1[C@]13COC(=O)c4c(O)cc(C)c(c41)C(=O)C2[C@@H]3OC(C)=O
> 30 µM: all assays above

CO[C@@]12c3c(C)cc(O)c4c(=O)n([C@H]5CO[C@H](CO)[C@@H](O)[C@@H]5O)cc(c34)C(=O)[C@@H]1[C@]13COC(=O)c4c(O)cc(C)c(c41)C(=O)[C@H]2[C@@H]3OC(C)=O
> 30 µM: all assays above

CO[C@@]12c3c(C)cc(O)c4c(=O)n([C@H]5CO[C@H](CO)[C@@H](O)[C@@H]5O)cc(c34)C(=O)[C@@H]1[C@]13COC(=O)c4c(O)cc(C)c(c41)C(=O)[C@H]2[C@@H]3O
> 30 µM: all assays above

Cc1cc(O)c2c3c1C(=O)[C@@H]1C4=C(C(=O)c5cn([C@H]6CO[C@H](CO)[C@@H](O)[C@@H]6O)c(=O)c6c(O)cc(C)c4c56)[C@@]3(COC2=O)[C@H]1O
> 30 µM: all assays above

CC(=O)OC[C@H]1OC[C@H](n2cc3c4c(c(C)cc(O)c4c2=O)C2=C(C3=O)[C@]34COC(=O)c5c(O)cc(C)c(c53)C(=O)[C@H]2[C@@H]4OC(C)=O)[C@@H](O)[C@@H]1O
> 30 µM: all assays above

CC(=O)O[C@H]1[C@@H]2C(=O)c3c(C)cc(O)c4c3[C@@]1(COC4=O)C1=C2c2c(C)cc(O)c3c(=O)n([C@H]4CO[C@H](CO)[C@@H](O)[C@@H]4O)cc(c23)C1=O
> 30 µM: all assays above
